Assay results published in ChEMBL document CHEMBL4806968, “Hipk inhibitors and methods of use thereof” (2020).

Tests used:
[1] = biological target: T1, Homeodomain-interacting protein kinase 4 (Homo sapiens) (UniProt Q8NE63); test: Inhibition of HIPK4 (unknown origin) at 0.5 uM relative to control
T1 sequence (whole entry): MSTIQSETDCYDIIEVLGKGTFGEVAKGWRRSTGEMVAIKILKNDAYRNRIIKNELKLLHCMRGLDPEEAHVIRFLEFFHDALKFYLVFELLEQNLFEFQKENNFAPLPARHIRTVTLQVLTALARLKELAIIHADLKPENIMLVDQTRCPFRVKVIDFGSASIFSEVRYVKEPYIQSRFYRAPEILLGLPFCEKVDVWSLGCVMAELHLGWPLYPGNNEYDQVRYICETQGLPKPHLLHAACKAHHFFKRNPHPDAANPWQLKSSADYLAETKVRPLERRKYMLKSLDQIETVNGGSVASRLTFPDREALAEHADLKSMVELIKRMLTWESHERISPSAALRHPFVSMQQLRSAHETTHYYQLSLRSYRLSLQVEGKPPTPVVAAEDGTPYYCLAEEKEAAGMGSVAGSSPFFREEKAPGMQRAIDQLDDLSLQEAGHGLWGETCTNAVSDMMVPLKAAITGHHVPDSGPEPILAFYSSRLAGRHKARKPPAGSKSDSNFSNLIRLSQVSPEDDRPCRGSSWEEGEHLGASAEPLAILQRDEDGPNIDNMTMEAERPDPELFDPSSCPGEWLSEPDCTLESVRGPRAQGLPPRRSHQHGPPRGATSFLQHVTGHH

[2] = biological target: T2, Ephrin type-A receptor 8 (Homo sapiens) (UniProt P29322); test: Inhibition of EPH-A8 (unknown origin) at 0.5 uM relative to control
T2 sequence (whole entry): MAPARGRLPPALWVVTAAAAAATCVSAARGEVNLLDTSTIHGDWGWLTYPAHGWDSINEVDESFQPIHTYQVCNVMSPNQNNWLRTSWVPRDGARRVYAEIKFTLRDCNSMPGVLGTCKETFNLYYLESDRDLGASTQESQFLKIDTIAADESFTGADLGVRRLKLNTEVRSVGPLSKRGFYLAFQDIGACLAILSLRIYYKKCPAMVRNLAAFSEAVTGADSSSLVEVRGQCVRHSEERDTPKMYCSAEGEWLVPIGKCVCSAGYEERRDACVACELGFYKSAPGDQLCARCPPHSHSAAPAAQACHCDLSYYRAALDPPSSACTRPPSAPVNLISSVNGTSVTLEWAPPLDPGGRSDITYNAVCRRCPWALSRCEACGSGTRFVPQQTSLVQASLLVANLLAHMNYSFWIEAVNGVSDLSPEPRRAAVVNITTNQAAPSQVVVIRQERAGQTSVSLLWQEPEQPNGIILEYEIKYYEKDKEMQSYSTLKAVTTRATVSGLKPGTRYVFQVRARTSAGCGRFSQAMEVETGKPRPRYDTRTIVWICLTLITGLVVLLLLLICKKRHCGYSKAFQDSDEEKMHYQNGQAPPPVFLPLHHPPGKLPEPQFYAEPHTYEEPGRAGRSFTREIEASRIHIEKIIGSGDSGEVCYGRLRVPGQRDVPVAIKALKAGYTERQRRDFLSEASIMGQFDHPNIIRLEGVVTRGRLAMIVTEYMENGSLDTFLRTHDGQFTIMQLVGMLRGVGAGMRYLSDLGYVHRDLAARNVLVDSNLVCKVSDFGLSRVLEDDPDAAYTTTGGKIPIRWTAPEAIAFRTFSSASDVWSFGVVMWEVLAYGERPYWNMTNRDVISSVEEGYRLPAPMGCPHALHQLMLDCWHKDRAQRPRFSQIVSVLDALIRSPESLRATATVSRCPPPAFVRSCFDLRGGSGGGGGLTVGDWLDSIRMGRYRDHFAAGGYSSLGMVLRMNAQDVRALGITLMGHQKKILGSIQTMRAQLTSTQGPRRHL

[3] = biological target: T3, Ephrin type-A receptor 6 (Homo sapiens) (UniProt Q9UF33); test: Inhibition of EPHA6 (unknown origin) at 0.5 uM relative to control
T3 sequence (whole entry): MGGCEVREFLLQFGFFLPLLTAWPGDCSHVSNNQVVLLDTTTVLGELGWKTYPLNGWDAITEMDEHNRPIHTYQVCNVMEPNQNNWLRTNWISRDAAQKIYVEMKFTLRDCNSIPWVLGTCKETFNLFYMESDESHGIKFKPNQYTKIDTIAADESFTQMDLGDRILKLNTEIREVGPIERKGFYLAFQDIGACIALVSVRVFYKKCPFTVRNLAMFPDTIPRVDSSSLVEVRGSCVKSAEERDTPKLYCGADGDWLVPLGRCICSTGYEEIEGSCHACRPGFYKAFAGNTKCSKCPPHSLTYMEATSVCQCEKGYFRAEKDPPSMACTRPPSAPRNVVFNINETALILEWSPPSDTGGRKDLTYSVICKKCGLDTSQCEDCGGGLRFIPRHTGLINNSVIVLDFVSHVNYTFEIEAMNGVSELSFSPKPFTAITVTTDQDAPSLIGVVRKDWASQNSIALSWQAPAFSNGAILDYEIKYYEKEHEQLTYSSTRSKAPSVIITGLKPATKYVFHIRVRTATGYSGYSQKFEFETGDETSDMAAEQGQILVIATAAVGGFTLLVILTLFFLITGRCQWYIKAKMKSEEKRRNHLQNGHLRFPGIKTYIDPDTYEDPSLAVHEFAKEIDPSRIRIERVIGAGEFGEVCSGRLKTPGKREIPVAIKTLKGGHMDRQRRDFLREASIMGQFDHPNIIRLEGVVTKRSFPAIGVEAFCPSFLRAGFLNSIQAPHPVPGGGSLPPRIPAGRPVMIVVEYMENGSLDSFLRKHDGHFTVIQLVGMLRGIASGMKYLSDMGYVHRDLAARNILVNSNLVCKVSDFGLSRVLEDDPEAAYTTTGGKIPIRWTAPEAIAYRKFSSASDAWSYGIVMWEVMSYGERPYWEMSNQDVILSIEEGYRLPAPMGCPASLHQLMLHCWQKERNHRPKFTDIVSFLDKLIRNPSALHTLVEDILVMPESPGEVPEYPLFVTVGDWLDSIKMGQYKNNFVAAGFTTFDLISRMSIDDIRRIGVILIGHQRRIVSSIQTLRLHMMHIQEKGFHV

| SMILES | inhibition [1] [%] | inhibition [2] [%] | inhibition [3] [%] |
| --- | --- | --- | --- |
| CSc1nc(C(=O)Nc2ccc(Oc3cc4cnn(C)c4cc3Br)cc2)c(-c2ccc(F)cc2)o1 | 87 | 25 | 19 |
| CNC(=O)c1cc(Oc2ccc(NC(=O)c3n[nH]nc3-c3ccc(F)cc3)cc2)ccn1 | 84 |  | 27 |
| CNC(=O)c1cc(Oc2ccc(NC(=O)c3nc(NC)sc3-c3ccc(F)cc3)cc2)ccn1 | 96 | 58 | 62 |
| CNC(=O)c1cc(Oc2ccc(NC(=O)c3nc(C(F)(F)F)sc3-c3ccc(F)cc3)cc2)ccn1 | 95 | 50 | 67 |
| CNC(=O)c1cc(Oc2ccc(NC(=O)c3nc(SC)n(CCN(C)C)c3-c3ccc(F)cc3)cc2)ccn1 | 91 | 57 | 58 |
| CNC(=O)c1cc(Oc2ccc(NC(=O)c3nc(S(C)(=O)=O)sc3-c3ccc(F)cc3)cc2)ccn1 | 96 |  |  |

Next, values leading:

| inhibition [1] [%] | inhibition [2] [%] | inhibition [3] [%] | SMILES |
| --- | --- | --- | --- |
| 99 |  | 69 | CNC(=O)c1cc(Oc2ccc(NC(=O)c3nc(SC)oc3-c3ccc(F)cc3)cc2)ccn1 |
| 98 | 42 | 69 | CNC(=O)c1cc(Oc2ccc(NC(=O)c3nc(SC)oc3-c3ccc(F)cc3)cc2F)ccn1 |
| 97 | 96 |  | CNC(=O)c1cc(Oc2ccc(NC(=O)c3nc(SC)[nH]c3-c3ccc(F)cc3)cc2)ccn1 |
